In this test the target is T1, Zcchc11 enzyme (Homo sapiens, UniProt Q5TAX3).
T1 construct: made in house; host or cells: HEK293 cells (Zcchc11); E. coli Rosetta II (LIN28A)
T1 sequence (Q5TAX3 212-1420): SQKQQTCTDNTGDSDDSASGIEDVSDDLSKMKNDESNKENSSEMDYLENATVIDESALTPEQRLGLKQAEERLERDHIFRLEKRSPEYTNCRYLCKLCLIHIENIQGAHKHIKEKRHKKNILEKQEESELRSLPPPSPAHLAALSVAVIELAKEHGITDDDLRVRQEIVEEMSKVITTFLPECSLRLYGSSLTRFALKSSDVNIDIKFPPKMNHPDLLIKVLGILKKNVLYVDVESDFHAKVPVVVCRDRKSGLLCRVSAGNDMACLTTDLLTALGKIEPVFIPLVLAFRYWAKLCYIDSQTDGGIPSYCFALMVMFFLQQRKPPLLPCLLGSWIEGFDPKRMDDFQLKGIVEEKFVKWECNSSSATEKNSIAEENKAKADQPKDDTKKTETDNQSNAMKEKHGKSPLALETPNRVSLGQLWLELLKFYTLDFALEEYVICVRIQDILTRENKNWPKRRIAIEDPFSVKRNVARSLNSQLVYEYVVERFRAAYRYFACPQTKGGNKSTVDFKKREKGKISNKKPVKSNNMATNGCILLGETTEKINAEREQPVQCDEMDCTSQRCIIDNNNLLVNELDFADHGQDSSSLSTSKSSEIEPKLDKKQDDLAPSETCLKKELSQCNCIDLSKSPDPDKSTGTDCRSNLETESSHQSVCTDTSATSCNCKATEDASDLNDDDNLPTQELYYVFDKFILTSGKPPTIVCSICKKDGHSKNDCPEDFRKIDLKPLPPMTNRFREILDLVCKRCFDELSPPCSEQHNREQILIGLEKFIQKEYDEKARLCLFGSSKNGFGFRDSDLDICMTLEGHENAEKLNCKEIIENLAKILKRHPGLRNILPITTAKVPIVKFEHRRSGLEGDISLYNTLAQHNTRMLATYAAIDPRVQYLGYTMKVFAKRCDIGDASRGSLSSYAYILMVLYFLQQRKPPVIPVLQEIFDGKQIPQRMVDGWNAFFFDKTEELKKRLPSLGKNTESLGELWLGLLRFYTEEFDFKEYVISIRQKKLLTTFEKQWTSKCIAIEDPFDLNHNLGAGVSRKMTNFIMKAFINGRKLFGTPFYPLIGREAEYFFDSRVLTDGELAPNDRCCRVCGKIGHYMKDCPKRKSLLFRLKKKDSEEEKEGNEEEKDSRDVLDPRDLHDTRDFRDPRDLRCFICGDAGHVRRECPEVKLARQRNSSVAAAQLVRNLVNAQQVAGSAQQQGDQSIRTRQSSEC
Nature of the test: TUTase assay (Zcchc11 assay, Lin28a-dependent polyuridylation of pre-let-7). It is filed as biochemical. Conditions: Lin28a-dependent Zcchc11 (Z11) TUTase assay; read-out: Potency Lin28a-dep Z11 IC50. The method in brief: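 LIN28A (10 nM) in pH 7.3 HEPES/KCl/MgCl2/DTT buffer was mixed with serially diluted compound, then 0.2 nM truncated human Zcchc11 and 2 nM labeled pre-let-7 were added for 30 min at room temperature. UTP (5 uM) and quench probe (4 nM) then started the reaction. Linear early rates gave IC50 values.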
For the compound `CC(=O)Nc1ccc(-n2cc(C(=O)O)c(=O)c3cc(Cl)c(N4CCC[C@@H]4COc4ncccc4Cl)cc32)cn1` [Example 426, (R)-1-(6-acetamidopyridin-3-yl)-6-chloro-7-(2-(((3-chloro-pyridin-2-yl)oxy)methyl)pyrrolidin-1-yl)-4-oxo-1,4-dihydroquinoline-3-carboxylic acid], the IC50 is ≤ 1 µM.
Take `CS(=O)(=O)Nc1ccc(-n2cc(C(=O)O)c(=O)c3cc(Cl)c(N4CCC[C@@H]4COc4ncccc4Cl)cc32)cc1` [Example 427, (R)-6-chloro-7-(2-(((3-chloropyridin-2-yl)oxy)methyl)pyrrolidin-1-yl)-1-(4-(methyl-sulfonamido)phenyl)-4-oxo-1,4-dihydroquinoline-3-carboxylic acid]: the IC50 was ≤ 1 µM.
As to `O=C(O)c1cn(-c2ccnc(O)c2)c2cc(N3CCC[C@@H]3COc3ncccc3Cl)c(Cl)cc2c1=O` [Example 428, (R)-6-chloro-7-(2-(((3-chloropyridin-2-yl)oxy)methyl)pyrrolidin-1-yl)-1-(2-hydroxypyridin-4-yl)-4-oxo-1,4-dihydroquinoline-3-carboxylic acid], the 50% inhibitory concentration (IC50) was ≤ 1 µM.
Take `O=C(O)c1cn(-c2ccc(CO)nc2)c2cc(N3CCC[C@@H]3COc3ncccc3Cl)c(Cl)cc2c1=O` [Example 429, (R)-6-chloro-7-(2-(((3-chloropyridin-2-yl)oxy)methyl)pyrrolidin-1-yl)-1-(6-(hydroxymethyl)pyridin-3-yl)-4-oxo-1,4-dihydroquinoline-3-carboxylic acid]: the 50% inhibitory concentration (IC50) was ≤ 1 µM.
For the compound `O=C(O)c1cn(-c2ccc(N3CCCCC3)nc2)c2cc(N3CCC[C@@H]3COc3ncccc3Cl)c(Cl)cc2c1=O` [Example 430, (R)-6-chloro-7-(2-(((3-chloropyridin-2-yl)oxy)methyl)pyrrolidin-1-yl)-4-oxo-1-(6-(piperidin-1-yl)pyridin-3-yl)-1,4-dihydroquinoline-3-carboxylic acid], the IC50 was ≤ 1 µM.
On to `O=C(O)c1cn(-c2ccc(N3CCOCC3)nc2)c2cc(N3CCC[C@@H]3COc3ncccc3Cl)c(Cl)cc2c1=O` [Example 431, (R)-6-chloro-7-(2-(((3-chloropyridin-2-yl)oxy)methyl)pyrrolidin-1-yl)-1-(6-morpholino-pyridin-3-yl)-4-oxo-1,4-dihydroquinoline-3-carboxylic acid], for which the 50% inhibitory concentration (IC50) was ≤ 1 µM.
As to `O=C(O)c1cn(-c2ccc(N3CCCC3)nc2)c2cc(N3CCC[C@@H]3COc3ncccc3Cl)c(Cl)cc2c1=O` [Example 432, (R)-6-chloro-7-(2-(((3-chloropyridin-2-yl)oxy)methyl)pyrrolidin-1-yl)-4-oxo-1-(6-(pyrrolidin-1-yl)pyridin-3-yl)-1,4-dihydroquinoline-3-carboxylic acid], the IC50 is ≤ 1 µM.
For `O=C(O)c1cn(-c2nncs2)c2cc(N3CCC[C@@H]3COc3ccccn3)c(F)cc2c1=O` [Example 433, (R)-6-fluoro-4-oxo-7-(2-((pyridin-2-yloxy)methyl)pyrrolidin-1-yl)-1-(1,3,4-thiadiazol-2-yl)-1,4-dihydroquinoline-3-carboxylic acid] the value was 1 to 10 µM; for `O=C(O)c1cn(-c2cn[nH]c2)c2cc(N3CCC[C@@H]3COc3ncccc3Cl)c(Cl)cc2c1=O` [Example 434, (R)-6-chloro-7-(2-(((3-chloropyridin-2-yl)oxy)methyl)pyrrolidin-1-yl)-4-oxo-1-(1H-pyrazol-4-yl)-1,4-dihydroquinoline-3-carboxylic acid], 1 to 10 µM; for `COCCn1cc(-n2cc(C(=O)O)c(=O)c3cc(Cl)c(N4CCC[C@@H]4COc4ncccc4Cl)cc32)cn1` [Example 435, (R)-6-chloro-7-(2-(((3-chloropyridin-2-yl)oxy)methyl)pyrrolidin-1-yl)-1-(1-(2-methoxy-ethyl)-1H-pyrazol-4-yl)-4-oxo-1,4-dihydroquinoline-3-carboxylic acid], ≤ 1 µM.

For the origin of these results see patent publication US12662491B2 (Redona Therapeutics, Inc., priority 2020, dated 2026).
